The source of these data is ChEMBL document CHEMBL1201862, “PubChem BioAssay data set” (2004).

Test systems include 786-0; A549; CCRF-CEM; COLO 205; DU-145; EKVX; HOP-92; KM12; LOX IMVI; MOLT-4; NCI-H226; NCI-H23; NCI-H460; NCI-H522; OVCAR-4; OVCAR-8; SF-539; T47D; UO-31; MDA-MB-435.
Holding throughout (assay): DTP human tumour cell line panel, 48 h

Structures are written as SMILES.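 Growth conditions: 96-well plates. Treatment: test compound, 48 hours, 5 concentrations. Analysis: linear interpolation between bracketing concentrations; unreached endpoints set to highest concentration. The concentration for 50% growth inhibition is given as GI50.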 Activity calls are given as the source filed them. Cut-off read from the data, not from the text of the source: active = GI50 up to about 1.1 µM and inactive = higher.

Consider `CC1=NN(C(=O)c2ccccc2O)C(=O)/C1=C/c1ccc(O)cc1`, for which the GI50 is 0.323 µM (active) in the assay on 786-0; 0.291 µM (active) with A549; 1.47 µM (inactive) in the assay on CCRF-CEM; 34.9 µM (inactive) in the assay with COLO 205; 0.492 µM (active) with DU-145; 1.81 µM (inactive) in the assay on EKVX. Further, the GI50 with HOP-92 is 0.218 µM (active); in the assay on KM12, 0.298 µM (active); in the assay on LOX IMVI, 0.468 µM (active); in the assay with MOLT-4 it was 0.711 µM (active); with NCI-H226, 0.475 µM (active); in the assay with NCI-H23 it was 0.568 µM (active). Besides, the GI50 with NCI-H460 is 0.255 µM (active); with NCI-H522, 0.807 µM (active); with OVCAR-4, 1.48 µM (inactive); in the assay with OVCAR-8 it was 0.358 µM (active); in the assay on SF-539, 0.188 µM (active); in the assay on T47D it was 4.03 µM (inactive). In addition, in the assay on UO-31, the GI50 was 0.153 µM (active).
Take `CO[C@H]1c2cccc3cccc(c23)[C@@H]1n1[nH]c(=O)n(C(C)(C)C)c1=O`: the GI50 in the assay with 786-0, in the assay on A549, in the assay with CCRF-CEM, with COLO 205, with DU-145 and with EKVX was > 100 µM (inactive) throughout. Further, the GI50 in the assay on KM12, in the assay on LOX IMVI, in the assay on MDA-MB-435, with MOLT-4, with NCI-H226 and in the assay with NCI-H23 was > 100 µM (inactive) each time. The GI50 with NCI-H460, in the assay on NCI-H522, in the assay with OVCAR-4, in the assay on OVCAR-8, with SF-539 and with T47D was > 100 µM (inactive) each time. The GI50 in the assay on UO-31 was 69.8 µM (inactive).
`Cc1ncc2c(n1)CCC1=C2OS(=O)(=O)CC1N(C)C` (stereo not given): the GI50 was > 100 µM (inactive) in the assay with 786-0; > 100 µM (inactive) in the assay on A549; 80.5 µM (inactive) in the assay on CCRF-CEM; > 100 µM (inactive) in the assay on COLO 205; > 100 µM (inactive) in the assay on DU-145; > 100 µM (inactive) in the assay on EKVX. Also, the GI50 with KM12, in the assay on LOX IMVI, with MDA-MB-435, with MOLT-4, in the assay with NCI-H226 and with NCI-H23 was > 100 µM (inactive) in each case. Moreover, the GI50 is > 100 µM (inactive) in the assay with NCI-H460; 31.8 µM (inactive) in the assay on NCI-H522; > 100 µM (inactive) with OVCAR-4; > 100 µM (inactive) with OVCAR-8; > 100 µM (inactive) in the assay on SF-539; 63.1 µM (inactive) with T47D. Moreover, the GI50 in the assay with UO-31 is > 100 µM (inactive).
`COc1ccc(C(=O)/C=C/S/C(=N/C#N)SC)cc1`: the GI50 with 786-0 was 19 µM (inactive); in the assay with A549, > 100 µM (inactive); with COLO 205 it was 19.7 µM (inactive); in the assay on DU-145, 21.7 µM (inactive); in the assay with EKVX, 35.3 µM (inactive); with HOP-92, 65.5 µM (inactive). Further, the GI50 was 25.9 µM (inactive) in the assay on KM12; 21.5 µM (inactive) in the assay on MDA-MB-435; 5.77 µM (inactive) in the assay on MOLT-4; 16.5 µM (inactive) in the assay with NCI-H226; 16.9 µM (inactive) in the assay with NCI-H23; > 100 µM (inactive) in the assay on NCI-H460. The GI50 in the assay on NCI-H522 was 18.2 µM (inactive); in the assay with OVCAR-4 it was 58.9 µM (inactive); in the assay with OVCAR-8, 21 µM (inactive); in the assay with SF-539, 20 µM (inactive); with T47D, 20.7 µM (inactive); with UO-31, 17.9 µM (inactive).
Consider `COc1cc(OC)nc(-n2c(N)c(C(=O)O)c3ccc([N+](=O)[O-])cc3c2=O)n1`, for which the GI50 is > 100 µM (inactive) with 786-0; > 100 µM (inactive) in the assay with A549; 63.1 µM (inactive) in the assay with CCRF-CEM; > 100 µM (inactive) in the assay with COLO 205; > 100 µM (inactive) with DU-145; > 100 µM (inactive) with EKVX. Moreover, the GI50 with KM12, in the assay on LOX IMVI, in the assay with MDA-MB-435, with MOLT-4, in the assay on NCI-H226 and in the assay on NCI-H23 was > 100 µM (inactive) in each case. Further, the GI50 in the assay on NCI-H460 was > 100 µM (inactive); with NCI-H522 it was > 100 µM (inactive); with OVCAR-4, > 100 µM (inactive); in the assay on OVCAR-8 it was > 100 µM (inactive); in the assay on T47D, > 100 µM (inactive); in the assay on UO-31, 71.1 µM (inactive).
In the case of `OCC1=C[C@@](COCc2ccccc2)(OCc2ccccc2)[C@@H](OCc2ccccc2)[C@@H]1OCc1ccccc1`, the GI50 was 20.7 µM (inactive) in the assay with 786-0; 10.5 µM (inactive) in the assay on A549; 2.81 µM (inactive) with CCRF-CEM; 11.6 µM (inactive) in the assay on COLO 205; 37.6 µM (inactive) with DU-145; 11.7 µM (inactive) in the assay on EKVX. In addition, the GI50 was 15.9 µM (inactive) in the assay on KM12; 7.31 µM (inactive) in the assay on LOX IMVI; 6.64 µM (inactive) in the assay on MDA-MB-435; 4.57 µM (inactive) in the assay with MOLT-4; 15.5 µM (inactive) with NCI-H226; 16.6 µM (inactive) in the assay with NCI-H23. In addition, the GI50 in the assay with NCI-H460 was 18.8 µM (inactive); in the assay on NCI-H522 it was 11 µM (inactive); with OVCAR-4, 21.4 µM (inactive); in the assay with OVCAR-8 it was 36.2 µM (inactive); in the assay with T47D it was 19.3 µM (inactive); with UO-31 it was 17 µM (inactive).
Consider `COc1ccc(/C=C2/SC(c3ccccc3)N(NC(=O)CCCCCCCCC(=O)NN3C(=O)/C(=C\c4ccc(OC)c(OC)c4)SC3c3ccccc3)C2=O)cc1OC` (stereo not given), for which the GI50 in the assay on 786-0 is 19.6 µM (inactive); in the assay with A549, > 100 µM (inactive); with COLO 205, > 100 µM (inactive); in the assay with DU-145, > 100 µM (inactive); in the assay on EKVX, 17.1 µM (inactive); in the assay with HOP-92, 17.3 µM (inactive). The GI50 was 45 µM (inactive) in the assay on KM12; 38.5 µM (inactive) in the assay on MDA-MB-435; 19.7 µM (inactive) with MOLT-4; > 100 µM (inactive) in the assay on NCI-H226; 38.4 µM (inactive) with NCI-H23; 71 µM (inactive) with NCI-H460. The GI50 is 76.7 µM (inactive) with OVCAR-4; 67.8 µM (inactive) with OVCAR-8; 24.6 µM (inactive) with SF-539; 35.6 µM (inactive) in the assay on T47D; 58.2 µM (inactive) in the assay with UO-31.
Consider `OCC1COc2cc(Cl)c(Cl)cc2O1` (stereo not given), for which the GI50 in the assay on A549, with CCRF-CEM, in the assay with COLO 205, in the assay with DU-145, in the assay with EKVX and with KM12 was > 10 µM (inactive) throughout. In addition, the GI50 is > 10 µM (inactive) in the assay with LOX IMVI; > 10 µM (inactive) in the assay on MDA-MB-435; > 10 µM (inactive) with MOLT-4; 6.3 µM (inactive) in the assay with NCI-H226; > 10 µM (inactive) in the assay on NCI-H23; > 10 µM (inactive) in the assay on NCI-H460. The GI50 in the assay with NCI-H522 is 1.42 µM (inactive); with OVCAR-4, > 10 µM (inactive); in the assay with OVCAR-8, > 10 µM (inactive); in the assay on SF-539, > 10 µM (inactive); in the assay on T47D, > 10 µM (inactive); with UO-31, > 10 µM (inactive).
Turning to `O=C1OC(=O)c2c1cc1cc3c(cc1c2-c1ccc2c(c1)OCO2)OCO3`, the GI50 in the assay on 786-0 was 22 µM (inactive); in the assay on A549, > 100 µM (inactive); in the assay with CCRF-CEM, > 100 µM (inactive); in the assay on COLO 205 it was > 100 µM (inactive); in the assay with DU-145 it was > 100 µM (inactive); in the assay with HOP-92, > 100 µM (inactive). Further, the GI50 with KM12, in the assay with MDA-MB-435, in the assay on MOLT-4, in the assay on NCI-H226, in the assay on NCI-H23 and with NCI-H460 was > 100 µM (inactive) throughout. The GI50 with NCI-H522, in the assay with OVCAR-4, with OVCAR-8, in the assay with SF-539, with T47D and with UO-31 was > 100 µM (inactive) each time.
As to `O=C(NNC(=O)c1ccccc1O)c1ccc(O)cc1`, the GI50 with 786-0 was 46.8 µM (inactive); with A549, 38.8 µM (inactive); in the assay on CCRF-CEM, 70.8 µM (inactive); in the assay with COLO 205 it was 47.8 µM (inactive); in the assay on DU-145, 76.7 µM (inactive); in the assay on EKVX, 38.3 µM (inactive). Further, the GI50 with KM12 was 45.3 µM (inactive); in the assay with LOX IMVI it was 31.6 µM (inactive); in the assay with MDA-MB-435, 69.7 µM (inactive); with MOLT-4 it was 36.4 µM (inactive); in the assay on NCI-H226, 14.8 µM (inactive); in the assay on NCI-H460, 31.5 µM (inactive). The GI50 in the assay on NCI-H522 is 13.1 µM (inactive); with OVCAR-4, 91.6 µM (inactive); in the assay with OVCAR-8, 21.1 µM (inactive); in the assay with SF-539, 66.7 µM (inactive); with T47D it was > 100 µM (inactive); in the assay on UO-31 it was 42 µM (inactive).
As for `COc1cc(/C=C/C(=O)CC(=O)/C=C/c2ccc(O)c(OC)c2)ccc1O` [CURCUMIN], the GI50 was 3.33 µM (inactive) in the assay on 786-0; 12.8 µM (inactive) in the assay with A549; 3.03 µM (inactive) in the assay on CCRF-CEM; 13.5 µM (inactive) with COLO 205; 15.7 µM (inactive) in the assay with DU-145; 5.45 µM (inactive) in the assay on KM12. For the same molecule, the GI50 was 2.72 µM (inactive) with LOX IMVI; 2.98 µM (inactive) in the assay on MDA-MB-435; 4.68 µM (inactive) in the assay on MOLT-4; 18.8 µM (inactive) in the assay with NCI-H226; 5.6 µM (inactive) in the assay on NCI-H23; 8.07 µM (inactive) in the assay with NCI-H460. For the same molecule, the GI50 is 5.33 µM (inactive) with NCI-H522; 9.33 µM (inactive) in the assay with OVCAR-4; 7.35 µM (inactive) in the assay with OVCAR-8; 2.84 µM (inactive) with SF-539; 8.36 µM (inactive) in the assay with T47D; 11.3 µM (inactive) in the assay on UO-31.

What is called GI50 is the concentration giving 50% growth inhibition.
